What was measured:
[1] = molecular target: human CDK2/cycE1 (Homo sapiens (Human), UniProt P24941); assay: CDK2 IC50 (ADP-Glo kinase assay); type: biochemical; conditions: ATP 20 μM, histone H1 substrate
Experimental: A reaction mixture (6 μL) containing the following components was prepared: 60 mM HEPES (60 mM, pH 7.5), sodium orthovanadate (3 μM), PEG-20000 (50 μg/mL), DTT (1.2 mM), MgCl2 (3 mM), purified human CDK2/cycE1 (4 μg/mL), histone H1 (50 μg/mL), ATP (20 μM) and test compound at the appropriate concentration such that the final concentration of DMSO was 1% w/w. The reaction mixture was incubated at 30° C. for 75 min and then stopped by the addition of ADP-Glo Reagent (6 μL). The reaction was incubated at 25° C. for 1 h to deplete the remaining ATP. Subsequently, Kinase Detection Reagent (12 μL) was added and the reaction was allowed to proceed for 1 h at 25° C. before analysis by luminescence measurement using an Envision Plate Reader (Perkin Elmer).

[2] = molecular target: human CDK7/cycH/MAT1 (Homo sapiens (Human), UniProt P50613); assay: CDK7 IC50 (ADP-Glo kinase assay); type: biochemical; conditions: for IC50: ATP 8 μM, CDKtide substrate; for Ratio CDK2/CDK7: CDK2 IC50 / CDK7 IC50 selectivity; for CDK2/CDK7 Selectivity: Improvement vs. REF-001: ratio of CDK2/CDK7 ratios; for CDK7 Potency: Improvement vs. REF-001: ratio of CDK7 IC50 of REF-001 to compound
Sequence of human CDK7/cycH/MAT1 (P50613 whole entry): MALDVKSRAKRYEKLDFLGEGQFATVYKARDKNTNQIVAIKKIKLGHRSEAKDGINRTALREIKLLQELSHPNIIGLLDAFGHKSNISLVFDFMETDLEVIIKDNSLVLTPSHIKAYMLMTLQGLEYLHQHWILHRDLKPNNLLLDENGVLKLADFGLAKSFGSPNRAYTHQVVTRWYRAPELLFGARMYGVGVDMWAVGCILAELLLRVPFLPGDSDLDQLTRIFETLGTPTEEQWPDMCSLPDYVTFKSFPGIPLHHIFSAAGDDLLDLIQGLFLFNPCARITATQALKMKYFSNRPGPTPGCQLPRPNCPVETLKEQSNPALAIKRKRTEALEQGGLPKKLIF
Sequence of human CDK7/cycH/MAT1 (P51946 whole entry partner): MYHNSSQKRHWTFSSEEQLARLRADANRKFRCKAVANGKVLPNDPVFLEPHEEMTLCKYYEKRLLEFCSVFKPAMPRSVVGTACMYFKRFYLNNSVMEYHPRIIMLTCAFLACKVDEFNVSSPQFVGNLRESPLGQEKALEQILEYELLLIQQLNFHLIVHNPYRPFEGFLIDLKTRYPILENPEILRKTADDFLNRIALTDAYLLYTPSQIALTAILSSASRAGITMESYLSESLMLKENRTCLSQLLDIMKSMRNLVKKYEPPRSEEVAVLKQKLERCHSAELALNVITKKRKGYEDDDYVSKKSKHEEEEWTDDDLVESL
Sequence of human CDK7/cycH/MAT1 (P51948 whole entry partner): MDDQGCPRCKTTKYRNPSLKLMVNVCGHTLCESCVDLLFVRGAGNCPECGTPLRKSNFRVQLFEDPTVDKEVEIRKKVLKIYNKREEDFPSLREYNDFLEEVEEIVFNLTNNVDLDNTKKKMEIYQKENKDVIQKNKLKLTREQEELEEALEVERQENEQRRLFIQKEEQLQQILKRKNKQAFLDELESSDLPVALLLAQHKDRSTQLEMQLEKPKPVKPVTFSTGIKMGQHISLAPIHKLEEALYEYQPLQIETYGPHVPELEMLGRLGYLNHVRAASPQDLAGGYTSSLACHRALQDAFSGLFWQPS
Experimental: (§1) A reaction mixture (6 μL) containing the following components was prepared: 60 mM HEPES (60 mM, pH 7.5), sodium orthovanadate (3 μM), PEG-20000 (50 μg/mL), DTT (1.2 mM), MgCl2 (3 mM), MnCl2 (3 mM), purified human CDK7/cycH/MAT1 (4 μg/mL), CDKtide (10 μM), ATP (8 μM) and test compound at the appropriate concentration such that the final concentration of DMSO was 1% w/w. The reaction mixture was incubated at 30° C. for 30 min and then stopped by the addition of ADP-Glo Reagent (6 μL). The reaction was incubated at 25° C. for 1 h to deplete the remaining ATP. Subsequently, Kinase Detection Reagent (12 μL) was added and the reaction was allowed to proceed for 1 h at 25° C. before analysis by luminescence measurement using an Envision Plate Reader (Perkin Elmer).

[3] = molecular target: human CDK9/cycK (Homo sapiens (Human), UniProt P50750); assay: CDK9 IC50 (ADP-Glo kinase assay); type: biochemical; conditions: ATP 8 μM, CDKtide substrate
Sequence of human CDK9/cycK (P50750 whole entry): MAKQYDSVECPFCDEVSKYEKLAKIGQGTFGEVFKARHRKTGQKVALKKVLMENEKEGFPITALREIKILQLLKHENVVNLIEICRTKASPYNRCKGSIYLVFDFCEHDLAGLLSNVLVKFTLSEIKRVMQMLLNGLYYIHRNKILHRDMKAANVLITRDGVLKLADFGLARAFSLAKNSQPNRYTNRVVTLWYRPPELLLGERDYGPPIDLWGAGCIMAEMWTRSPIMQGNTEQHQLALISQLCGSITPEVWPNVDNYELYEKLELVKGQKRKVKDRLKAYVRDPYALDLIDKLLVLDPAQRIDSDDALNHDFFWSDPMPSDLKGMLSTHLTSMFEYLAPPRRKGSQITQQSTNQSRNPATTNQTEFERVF
Sequence of human CDK9/cycK (O75909 whole entry partner): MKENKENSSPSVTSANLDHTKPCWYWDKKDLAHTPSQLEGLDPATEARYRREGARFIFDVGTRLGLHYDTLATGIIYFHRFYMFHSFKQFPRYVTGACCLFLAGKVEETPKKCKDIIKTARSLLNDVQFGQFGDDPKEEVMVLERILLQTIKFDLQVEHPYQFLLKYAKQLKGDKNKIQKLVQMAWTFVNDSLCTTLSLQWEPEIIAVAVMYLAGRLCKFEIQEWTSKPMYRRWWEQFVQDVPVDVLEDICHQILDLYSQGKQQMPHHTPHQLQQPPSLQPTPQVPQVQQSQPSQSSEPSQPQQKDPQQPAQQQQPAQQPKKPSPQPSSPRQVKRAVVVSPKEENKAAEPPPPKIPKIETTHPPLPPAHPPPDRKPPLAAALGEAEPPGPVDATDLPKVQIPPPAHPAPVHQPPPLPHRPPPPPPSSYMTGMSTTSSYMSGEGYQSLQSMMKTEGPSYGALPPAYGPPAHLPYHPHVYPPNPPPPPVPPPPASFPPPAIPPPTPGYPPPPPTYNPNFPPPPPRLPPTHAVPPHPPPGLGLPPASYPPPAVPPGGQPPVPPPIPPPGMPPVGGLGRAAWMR
Experimental: In addition to those mentioned above for Method 1: • Human CDK9/cycK (Promega, V4104). • CDKtide (SignalChem, C06-58).
as §1, with “mM),” for “mM), MnCl2 (3 mM),”, “human CDK9/cycK (2.5” for “human CDK7/cycH/MAT1 (4”, “CDKtide (35” for “CDKtide (10”, “for 60” for “for 30”

[4] = Human Plasma Protein Binding (PPB), RED device; type: in vitro ADME; conditions: for Free Fraction: Improvement vs. REF-001: human plasma; for Human PPB / fraction unbound at 240 min, 5 µM: human plasma pH 7.4, 37° C., 240 min
Experimental: Method 4: Human Plasma Protein Binding (PPB)
Materials and solutions: • Human Plasma (Sera Labs, […]). • Bupropion hydrochloride (Sigma, B102). • DPBS (Sigma, D8537). • Formic Acid (Sigma, F0507). • RED Device Single Use (Life Technologies, 90006). • Internal standard solution preparation: A solution of bupropion hydrochloride (50 μL, 10 mM in DMSO) was combined with 0.1% formic acid (1 mL) in acetonitrile (1000 mL).
Once frozen plasma was defrosted and adjusted to pH 7.4 using 1 M lactic acid solution and a portion of this mixture (792 μL) combined with each test compound solution (8 μL, 0.5 mM in DMSO). Portions of the resultant spiked plasma (200 μL) were added to sample compartments of the RED device. DBPS (350 μL) was added to each corresponding buffer compartment. An initial sample (50 μL) was taken and then the RED plate was sealed and incubated at 37° C. for 240 min on an orbital shaker (200 rpm) in a humidified CO2 (5%) atmosphere, alongside plasma and DBPS samples. Each sample well was treated with internal standard solution (300 μL). Aliquots (50 μL) were removed from each buffer well and sample well and replaced with incubated plasma (50 μL) or incubated DPBS (50 μL) respectively. The plate was sealed and centrifuged (3500 rpm, 15 min). Aliquots of the supernatant (100 μL) were combined with water (50 μL) for analysis using a Waters TQS Mass Spectrometer.

[5] = molecular target: MDR1 (Homo sapiens (Human), UniProt P08183); assay: MDCK-MDR1 Efflux Ratio; type: in vitro ADME; conditions: dog, MDCK-MDR1, pH 7.4, HBSS pH 7.4, 37° C.
Sequence of MDR1 (P08183 whole entry): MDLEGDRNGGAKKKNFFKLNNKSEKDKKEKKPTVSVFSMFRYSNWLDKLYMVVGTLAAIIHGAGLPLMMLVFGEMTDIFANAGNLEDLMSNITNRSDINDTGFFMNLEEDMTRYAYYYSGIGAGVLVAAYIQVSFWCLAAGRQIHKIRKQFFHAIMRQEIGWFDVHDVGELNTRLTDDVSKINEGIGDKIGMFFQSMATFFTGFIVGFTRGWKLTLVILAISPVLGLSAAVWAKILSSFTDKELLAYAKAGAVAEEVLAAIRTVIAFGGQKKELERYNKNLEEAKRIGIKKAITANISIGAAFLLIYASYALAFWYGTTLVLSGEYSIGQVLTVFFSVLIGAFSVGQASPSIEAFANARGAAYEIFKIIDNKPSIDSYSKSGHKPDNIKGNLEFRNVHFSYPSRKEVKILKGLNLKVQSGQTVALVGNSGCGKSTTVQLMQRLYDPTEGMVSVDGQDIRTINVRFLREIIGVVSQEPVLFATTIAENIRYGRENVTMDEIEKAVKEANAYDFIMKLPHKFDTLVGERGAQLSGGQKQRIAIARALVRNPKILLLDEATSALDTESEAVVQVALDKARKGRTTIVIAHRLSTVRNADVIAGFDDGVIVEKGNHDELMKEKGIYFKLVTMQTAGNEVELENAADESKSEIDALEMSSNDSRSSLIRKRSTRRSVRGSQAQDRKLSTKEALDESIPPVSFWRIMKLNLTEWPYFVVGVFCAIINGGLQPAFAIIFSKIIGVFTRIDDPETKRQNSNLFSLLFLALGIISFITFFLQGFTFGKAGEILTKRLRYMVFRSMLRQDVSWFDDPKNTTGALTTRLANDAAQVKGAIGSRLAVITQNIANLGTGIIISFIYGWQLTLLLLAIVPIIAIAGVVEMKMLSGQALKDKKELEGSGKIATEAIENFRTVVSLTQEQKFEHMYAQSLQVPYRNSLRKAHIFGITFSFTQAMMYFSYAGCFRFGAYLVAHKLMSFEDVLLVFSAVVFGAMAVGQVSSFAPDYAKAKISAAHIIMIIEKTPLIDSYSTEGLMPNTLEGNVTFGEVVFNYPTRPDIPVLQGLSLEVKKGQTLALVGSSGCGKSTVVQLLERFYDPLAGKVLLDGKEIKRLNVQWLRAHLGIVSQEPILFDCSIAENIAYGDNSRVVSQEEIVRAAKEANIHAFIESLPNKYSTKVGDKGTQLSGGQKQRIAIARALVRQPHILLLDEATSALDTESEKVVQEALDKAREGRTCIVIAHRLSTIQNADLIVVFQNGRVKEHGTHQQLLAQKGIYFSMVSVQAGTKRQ
Experimental: Method 5: MDCK-MDR1 Efflux Ratio
Materials and solutions: • MDCK/MDR1 Ready™ cell plate (Readycell). • High Glucose Cell Culture Medium (Sigma, D5671) supplemented with: 10% FBS, 1% Glutamine 200 mM, 1% Penicillin (10,000 U/mL)—Streptomycin (10 mg/mL). • HBSS Buffer (Gibco, 14065-049). • Internal standard: 0.5 μM Bupropion in acetonitrile/0.1% formic acid (aq) (1:1 v/v).
HBSS assay buffer was prepared at pH 7.4 and warmed to 37° C. The cell culture media was removed from the Readycell plate. The Basal cells were washed with HBSS buffer (3×225 μL) and the Apical cells were washed with HBSS buffer (3×75 μL). The cells were warmed to 37° C. in a humidified CO2 (5%) atmosphere and shaken at 250 rpm for 30 min. Compound and standard solutions were prepared by diluting each compound (10 μL, 1 mM in DMSO) with HBSS (990 μL). The buffer was carefully removed from the Basal cell plate, followed by the Apical cell plate. HBSS buffer (225 μL) and compound solution (250 μL) were added to the Basal cell plate. An aliquot (25 μL) of the solutions were combined with internal standard (75 μL) and refrigerated for use as the t=0 h sample. HBSS buffer (75 μL) and compound solution (100 μL) were added to the Apical cell plate. An aliquot (25 μL) was taken and processed in the same manner as for the Basal cell plate. […]

[6] = molecular target: BCRP (Homo sapiens (Human), UniProt Q9UNQ0); assay: MDCK-BCRP Efflux Ratio; type: in vitro ADME; conditions: dog, pH 7.4, HBSS pH 7.4, 37° C.
Sequence of BCRP (Q9UNQ0 whole entry): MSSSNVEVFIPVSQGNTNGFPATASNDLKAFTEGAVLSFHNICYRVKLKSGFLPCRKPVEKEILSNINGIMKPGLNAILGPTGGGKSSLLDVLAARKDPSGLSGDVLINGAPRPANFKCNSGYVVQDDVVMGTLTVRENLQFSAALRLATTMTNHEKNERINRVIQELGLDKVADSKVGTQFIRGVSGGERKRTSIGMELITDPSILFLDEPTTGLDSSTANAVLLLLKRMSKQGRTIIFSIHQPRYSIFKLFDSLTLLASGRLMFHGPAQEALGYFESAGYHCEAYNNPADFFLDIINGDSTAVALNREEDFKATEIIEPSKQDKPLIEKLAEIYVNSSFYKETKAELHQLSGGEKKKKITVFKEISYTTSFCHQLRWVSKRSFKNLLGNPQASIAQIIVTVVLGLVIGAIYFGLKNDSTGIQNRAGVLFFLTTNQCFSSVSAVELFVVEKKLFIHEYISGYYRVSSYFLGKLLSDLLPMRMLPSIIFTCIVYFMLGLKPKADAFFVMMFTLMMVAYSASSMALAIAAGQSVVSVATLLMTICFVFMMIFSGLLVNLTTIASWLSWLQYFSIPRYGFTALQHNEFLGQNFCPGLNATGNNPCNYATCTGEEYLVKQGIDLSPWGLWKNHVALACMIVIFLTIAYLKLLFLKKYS
Source text: Method 6: MDCK-BCRP Efflux Ratio
Essentially the same as Method 5, but using MDCK/BCRP Ready™ cell plates (Readycell) in place of MDCK/MDR1 plates.

[7] = system: MCF-7 breast cancer cell line; conditions: with 4-hydroxytamoxifen or Faslodex, ERα-positive MCF-7 cells; cited from earlier work

| SMILES | IC50 [1] | IC50 [2] | Ratio CDK2/CDK7 [2] | CDK2/CDK7 Selectivity: Improvement vs. REF-001 [2] | CDK7 Potency: Improvement vs. REF-001 [2] | IC50 [3] | Free Fraction: Improvement vs. REF-001 [4] | Human PPB [4] | fraction unbound at 240 min, 5 µM [4] | efflux ratio at 2 h, 10 µM [5] | efflux ratio at 2 h, 10 µM [6] | effect of the combination with an anti-estrogen on growth of breast cancer cells [7] |
| --- | --- | --- | --- | --- | --- | --- | --- | --- | --- | --- | --- | --- |
| CCc1cnn2c(NCc3ccccc3F)cc(NC[C@H]3CCNC[C@@H]3O)nc12 [APPAMP-001, (3R,4R)-4-(((3-ethyl-7-((2-fluorobenzyl)amino)pyrazolo[1,5-a]pyrimidin-5-yl)amino)methyl)piperidin-3-ol] | 640 nM | 13 nM | 49 | 2.54 fold | 2.62 fold | 200 nM | 2.14 fold | 85% | 0.15 | 2 | 5 |  |
| O[C@H]1CNCC[C@@H]1CNc1cc(NCc2ccccc2)n2ncc(C3CC3)c2n1 [APPAMP-002, (3R,4R)-4-(((7-(benzylamino)-3-cyclopropylpyrazolo[1,5-a]pyrimidin-5-yl)amino)methyl)piperidin-3-ol] | 770 nM | 33 nM | 23 | 1.20 fold | 1.03 fold | 210 nM | 2.43 fold | 83% | 0.17 | 5.7 | 2 |  |
| CCc1cnn2c(NCc3cccc(C#N)c3)cc(NC[C@H]3CCNC[C@@H]3O)nc12 [APPAMP-003, 3-(((3-ethyl-5-((((3R,4R)-3-hydroxypiperidin-4-yl)methyl)amino)pyrazolo[1,5-a]pyrimidin-7-yl)amino)methyl)benzonitrile] | 190 nM | 8.9 nM | 21 | 1.10 fold | 3.82 fold | 22 nM |  |  |  |  |  |  |
| CCc1cnn2c(NCc3cccc(C#N)c3)c(Cl)c(NC[C@H]3CCNC[C@@H]3O)nc12 [APPAMP-004, 3-(((6-chloro-3-ethyl-5-((((3R,4R)-3-hydroxypiperidin-4-yl)methyl)amino)pyrazolo[1,5-a]pyrimidin-7-yl)amino)methyl)benzonitrile] | 2400 nM | 4.2 nM | 571 | 29.4 fold | 8.10 fold | 130 nM |  |  |  |  |  |  |
| CC(C)c1cnn2c(NCc3ccccc3)cc(NC[C@H]3CCNC[C@@H]3O)nc12 [REF-001, (3R,4R)-4-(((7-(benzylamino)-3-isopropylpyrazolo[1,5-a]pyrimidin-5-yl)amino)methyl)piperidin-3-ol, reference compound] |  |  |  |  |  |  |  | 93% | 0.07 |  |  | synergistic effects |

From patent US11857552B2, “4-[[(7-aminopyrazolo[1,5-a]pyrimidin-5-yl)amino]methyl]piperidin-3-ol compounds as CDK inhibitors” (Carrick Therapeutics Limited, priority 2017, dated 2024)
